Measured values reported in PubChem BioAssay (NCI).
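Growth conditions: 96-well plates. Treatment: test compound, 48 hours, 5 concentrations. Analysis: linear interpolation between bracketing concentrations; unreached endpoints set to highest concentration. At the GI50, growth is halved. At the TGI there is no net growth.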

Experiments:
Assay in all cases: NCI-60 cell line screen, 48 h
[1] = system: A498 renal
[2] = system: DU-145 prostate
[3] = system: SR leukemia
[4] = system: SK-MEL-5 melanoma
[5] = system: UACC-257 melanoma
[6] = system: SK-OV-3 ovarian
[7] = system: NCI-H522 lung
[8] = system: U251 CNS
[9] = system: SF-539 CNS
[10] = system: HL-60(TB) leukemia
[11] = system: RPMI-8226 leukemia
[12] = system: LOX IMVI melanoma
[13] = system: M14 melanoma
[14] = system: RXF 393 renal
[15] = system: HOP-92 NSCLC
[16] = system: OVCAR-3 ovarian
[17] = system: MCF7 breast
[18] = system: HOP-62 NSCLC
[19] = system: A549 NSCLC
[20] = system: SF-268 CNS
[21] = system: 786-0 renal
[22] = system: SF-295 CNS
[23] = system: KM12 colon
[24] = system: IGROV1 ovarian
[25] = system: TK-10 renal
[26] = system: NCI-H226 lung
[27] = system: SNB-19 CNS
[28] = system: OVCAR-8 ovarian
[29] = system: CAKI-1 renal
[30] = system: K-562 leukemia
[31] = system: NCI/ADR-RES ovarian
[32] = system: SK-MEL-2 melanoma
[33] = system: ACHN renal
[34] = system: MDA-MB-231 breast
[35] = system: BT-549 breast
[36] = system: EKVX NSCLC
[37] = system: HCT-116 colon
[38] = system: SN12C renal
[39] = system: UO-31 renal
[40] = system: PC-3 prostate
[41] = system: NCI-H460 lung
[42] = system: OVCAR-4 ovarian
[43] = system: HT29 colon
[44] = system: HCC-2998 colon
[45] = system: OVCAR-5 ovarian
[46] = system: MOLT-4 leukemia
[47] = system: MALME-3M melanoma
[48] = system: SW-620 colon
[49] = system: UACC-62 melanoma
[50] = system: CCRF-CEM leukemia
[51] = system: COLO 205 colon
[52] = system: T-47D breast
[53] = system: NCI-H23 lung
[54] = system: SK-MEL-28 melanoma
[55] = system: HCT-15 colon

With `N=C(N)c1ccc(-c2ccc(-c3ccc(Cl)cc3)s2)s1` the GI50 [1] was 13 µM, the TGI [1] was 45.3 µM and the GI50 [2] was 1.62 µM. The TGI [2] was 2.98 µM, the GI50 [3] was 0.322 µM and the TGI [3] was over 100 µM. The GI50 [4] was 3.16 µM, the TGI [4] was 8.66 µM and the GI50 [5] was 2.78 µM. It also gave a TGI [5] of 4.9 µM, a GI50 [6] of 1.7 µM and a TGI [6] of 3.15 µM.

For `CC(C)OC(=S)[S-].[Au+].c1ccc([PH+](c2ccccc2)c2ccccc2)cc1`, the GI50 [7] was 0.176 µM, the TGI [7] was 0.409 µM and the GI50 [8] was 0.419 µM. It also gave a TGI [8] of 1.56 µM, a GI50 [9] of 1.24 µM and a TGI [9] of 2.49 µM. It also gave a GI50 [10] of 0.264 µM, a TGI [10] of 1.36 µM and a GI50 [11] of 0.747 µM. For the same molecule, the TGI [11] was 4.01 µM, the GI50 [12] was 0.478 µM and the TGI [12] was 2.07 µM. The GI50 [13] was 0.986 µM, the TGI [13] was 2.32 µM and the GI50 [14] was 0.387 µM. It also gave a TGI [14] of 1.48 µM, a GI50 [15] of 1.07 µM and a TGI [15] of 2.25 µM. It also gave a GI50 [16] of 0.316 µM, a TGI [16] of 1.05 µM and a GI50 [17] of 0.467 µM. The TGI [17] was 2.66 µM.

For `C[N+](C)([O-])Cc1cccc(NC(=O)c2ccc(C(=O)Nc3cccc(C[N+](C)(C)[O-])c3)cc2)c1`, the TGI [7] was over 100 µM, the TGI [8] was over 100 µM and the TGI [18] was over 100 µM. It also gave a TGI [19] of over 100 µM, a TGI [20] of over 100 µM and a TGI [21] of over 100 µM. For the same molecule, the TGI [9] was over 100 µM, the TGI [22] was over 100 µM and the TGI [23] was over 100 µM. The TGI [10] was over 100 µM, the TGI [24] was over 100 µM and the TGI [11] was over 100 µM. For the same molecule, the TGI [25] was over 100 µM, the TGI [2] was over 100 µM and the TGI [26] was over 100 µM. It also gave a TGI [27] of over 100 µM, a TGI [3] of over 100 µM and a TGI [28] of over 100 µM. The TGI [29] was over 100 µM, the TGI [30] was over 100 µM and the TGI [31] was over 100 µM. The TGI [32] was over 100 µM, the TGI [33] was over 100 µM and the TGI [34] was over 100 µM. For the same molecule, the TGI [12] was over 100 µM, the TGI [35] was over 100 µM and the TGI [36] was over 100 µM. It also gave a TGI [37] of over 100 µM, a TGI [38] of over 100 µM and a TGI [13] of over 100 µM. It also gave a TGI [39] of over 100 µM, a TGI [4] of over 100 µM and a TGI [40] of over 100 µM. It also gave a TGI [14] of over 100 µM, a TGI [41] of over 100 µM and a TGI [15] of over 100 µM. It also gave a TGI [42] of over 100 µM, a TGI [43] of over 100 µM and a TGI [44] of over 100 µM. The TGI [45] was over 100 µM, the TGI [46] was over 100 µM and the TGI [47] was over 100 µM. For the same molecule, the TGI [48] was over 100 µM, the TGI [49] was over 100 µM and the TGI [50] was over 100 µM. It also gave a TGI [51] of over 100 µM, a TGI [5] of over 100 µM and a TGI [52] of over 100 µM. For the same molecule, the TGI [53] was over 100 µM, the TGI [16] was over 100 µM and the TGI [6] was over 100 µM. For the same molecule, the TGI [54] was over 100 µM, the TGI [55] was over 100 µM and the TGI [17] was over 100 µM.
